Test results as given in ChEMBL document CHEMBL6071136, “Discovery of macrocyclic covalent inhibitors for severe acute respiratory syndrome coronavirus 2 3CL protease” (Bioorg Med Chem, 2024).

Legend:
[1] = molecular target: Replicase polyprotein 1ab (Severe acute respiratory syndrome coronavirus 2, UniProt P0DTD1); experiment: Inhibition of SARS-CoV-2 3CL protease using Dabcyl-KTSAVLQSGFRKM-(Edans) as substrate preincubated for 30 mins followed by substrate addition and measured after 60 mins by fluorescence based microplate reader assay
[2] = Metabolic stability in human liver microsomes assessed as half life measured upto 60 mins in presence of NADPH by LC/MS-MS analysis; format: ADME, Microsome
SARS-CoV-2 = experiment: microbe, parasite or virus in culture; conditions: Severe acute respiratory syndrome coronavirus 2, Huh-7, 24 h
[3] = Metabolic stability in human liver S9 fraction assessed as half life measured upto 60 mins by LC/MS-MS analysis; format: ADME, subcellular
[4] = Apparent permeability across apical to basolateral side in human Caco-2 cells incubated for 2 hrs by LC-MS/MS analysis; format: ADME, cell-based
[5] = Efflux ratio of apparent permeability across basolateral to apical side over apical to basolateral side in human Caco-2 cells; format: ADME, cell-based
[6] = Metabolic stability in rat liver microsomes assessed as half life measured upto 60 mins in presence of NADPH by LC/MS-MS analysis; format: ADME, Microsome
[7] = Cmax in Sprague-Dawley rat at 10 mg/kg, po measured upto 24 hrs by LC/MS-MS analysis; format: ADME, organism-based; conditions: in vivo
[8] = Tmax in Sprague-Dawley rat at 10 mg/kg, po measured upto 24 hrs by LC/MS-MS analysis; format: ADME, organism-based; conditions: in vivo
[9] = Half-life in Sprague-Dawley rat at 10 mg/kg, po measured upto 24 hrs by LC/MS-MS analysis; format: ADME, organism-based; conditions: in vivo
[10] = AUClast in Sprague-Dawley rat at 10 mg/kg, po measured upto 24 hrs by LC/MS-MS analysis; format: ADME, organism-based; conditions: in vivo

CC1(C)CNC(=O)[C@@H]2C[C@@H](C[C@@H](C#N)NC(=O)[C@@H]3[C@@H]4[C@H](CN3C(=O)[C@H]1NC(=O)C1CC1)C4(C)C)C(=O)N2
IC50 [1]: 32 nM | half-life [2]: > 180 min | EC50 (SARS-CoV-2): 6570 nM

COC(=O)N[C@@H]1C(=O)N2C[C@H]3[C@@H]([C@H]2C(=O)N[C@H](C#N)C[C@@H]2C[C@@H](CCCCC1(C)C)NC2=O)C3(C)C
IC50 [1]: 4.6 nM | half-life [2]: 13.9 min | EC50 (SARS-CoV-2): 100 nM

CC1(C)COC(=O)[C@@H]2C[C@@H](C[C@@H](C#N)NC(=O)[C@@H]3[C@@H]4[C@H](CN3C(=O)[C@H]1NC(=O)C(F)(F)F)C4(C)C)C(=O)N2
IC50 [1]: 34 nM | half-life [2]: > 180 min | half-life [3]: > 180 min | Papp A→B at 2 h [4]: 0.5 ×10⁻⁶ cm/s | efflux ratio [5]: 34 | EC50 (SARS-CoV-2): 181 nM

CC1(C)COC(=O)[C@@H]2C[C@@H](C[C@@H](C#N)NC(=O)[C@@H]3[C@@H]4[C@H](CN3C(=O)[C@H]1NC(=O)CC1CC1)C4(C)C)C(=O)N2
IC50 [1]: 21 nM | half-life [2]: 78 min | EC50 (SARS-CoV-2): 310 nM

CC1(C)COC(=O)[C@@H]2C[C@@H](C[C@@H](C#N)NC(=O)[C@@H]3[C@@H]4[C@H](CN3C(=O)[C@H]1NC(=O)C(F)(F)C1CC1)C4(C)C)C(=O)N2
IC50 [1]: 14 nM | half-life [6]: 34.8 min | half-life [2]: 71 min | Papp A→B at 2 h [4]: 0.13 ×10⁻⁶ cm/s | efflux ratio [5]: 96.4 | Cmax [7]: 131 ng/mL | Tmax [8]: 20 min | half-life [9]: 38.5 min | AUC(0-t) at 24 h [10]: 119 ng·h/mL | EC50 (SARS-CoV-2): 36 nM

CC1(C)COC(=O)[C@@H]2C[C@@H](C[C@@H](C#N)NC(=O)[C@@H]3[C@@H]4[C@H](CN3C(=O)[C@H]1NC(=O)C(F)(F)Cc1ccccc1)C4(C)C)C(=O)N2
IC50 [1]: 23 nM | half-life [2]: 1.7 min | Papp A→B at 2 h [4]: 0.08 ×10⁻⁶ cm/s | efflux ratio [5]: 154 | EC50 (SARS-CoV-2): 49 nM

CC1(C)COC(=O)[C@@H]2C[C@@H](C[C@@H](C#N)NC(=O)[C@@H]3[C@@H]4[C@H](CN3C(=O)[C@H]1NC(=O)C1CC1)C4(C)C)C(=O)N2
IC50 [1]: 12 nM | half-life [2]: 154 min | half-life [3]: > 180 min | Papp A→B at 2 h [4]: 0.08 ×10⁻⁶ cm/s | efflux ratio [5]: 22 | EC50 (SARS-CoV-2): 190 nM

CC1(C)CCCC[C@@H]2C[C@@H](C[C@@H](C#N)NC(=O)[C@@H]3[C@@H]4[C@H](CN3C(=O)[C@H]1NC(=O)OCc1ccccc1)C4(C)C)C(=O)N2
IC50 [1]: 27 nM | EC50 (SARS-CoV-2): 31 nM

CC1(C)CNC(=O)[C@@H]2C[C@H](C[C@@H](C#N)NC(=O)[C@@H]3[C@@H]4[C@H](CN3C(=O)[C@H]1NC(=O)OCc1ccccc1)C4(C)C)C(=O)N2
IC50 [1]: 12 nM | Papp A→B at 2 h [4]: 0.05 ×10⁻⁶ cm/s | efflux ratio [5]: 103

CC1(C)CCCC[C@@H]2C[C@@H](C[C@@H](C#N)NC(=O)[C@@H]3[C@@H]4[C@H](CN3C(=O)[C@H]1NC(=O)C(F)(F)F)C4(C)C)C(=O)N2
IC50 [1]: 10 nM | half-life [2]: 4.4 min | EC50 (SARS-CoV-2): 84 nM

CC1(C)COC(=O)[C@@H]2C[C@@H](C[C@@H](C#N)NC(=O)[C@@H]3[C@@H]4[C@H](CN3C(=O)[C@H]1NC(=O)C(F)(F)c1ccc(F)cc1)C4(C)C)C(=O)N2
IC50 [1]: 22 nM | half-life [2]: 6 min | Papp A→B at 2 h [4]: 0.1 ×10⁻⁶ cm/s | efflux ratio [5]: 206 | EC50 (SARS-CoV-2): 130 nM

CC1(C)CNC(=O)[C@@H]2C[C@H](C[C@@H](C#N)NC(=O)[C@@H]3[C@@H]4[C@H](CN3C(=O)[C@H]1NC(=O)C(F)(F)F)C4(C)C)C(=O)N2
IC50 [1]: 75 nM | half-life [2]: > 180 min | Papp A→B at 2 h [4]: 0.09 ×10⁻⁶ cm/s | efflux ratio [5]: 10
